Results published in patent US9833497B2, “Human originated EGF domain proteins and use of the same” (CHENGDU SOURCEBIO LIMITED-LIABILITY COMPANY, priority 2013, dated 2017).

Assays:
Type in all cases: cell-based
E. coli DH5α = experiment: Antibacterial activity: MIC and growth curve against E. coli DH5α in 96-well plate; details: minimal inhibitory concentration against E. coli DH5α; 96-well plate, 5×10^5 CFU/mL, 37° C., judged after 8 h
How it was run: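 Log-phase bacteria (OD600 ~0.5) resuspended in LB at 5×10^5 CFU/mL, exposed to recombinant protein at 50, 25, 12.5 μg/mL final in triplicate, 37 °C shaking at 175 rpm. OD600 read every 30 min; MIC is lowest concentration showing no growth.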

E. coli BL21 = experiment: MIC against Gram-negative bacteria: E. coli BL21; details: 5×10^5 CFU/mL
How it was run: (§1)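 Two-fold serial dilutions of each purified human EGF domain protein, three replicate wells per level, were combined with bacteria at a final 5×10^5 CFU/mL in LB. Cultures were shaken at 175 rpm, 37° C. The MIC was taken as the minimum concentration preventing growth.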

Pseudomonas aeruginosa = experiment: MIC against Gram-negative bacteria: Pseudomonas aeruginosa; details: 5×10^5 CFU/mL
How it was run: as §1

Klebsiella pneumonia = experiment: MIC against Gram-negative bacteria: Klebsiella pneumonia; details: 5×10^5 CFU/mL
How it was run: as §1

Enterobacter cloacae = experiment: MIC against Gram-negative bacteria: Enterobacter cloacae; details: 5×10^5 CFU/mL
How it was run: as §1

Aeromonas hydrophila = experiment: MIC against Gram-negative bacteria: Aeromonas hydrophila; details: 5×10^5 CFU/mL
How it was run: as §1

Citrobacter diversus = experiment: MIC against Gram-negative bacteria: Citrobacter diversus; details: 5×10^5 CFU/mL
How it was run: as §1

Moraxella catarrhalis = experiment: MIC against Gram-negative bacteria: Moraxella catarrhalis; details: 5×10^5 CFU/mL
How it was run: as §1

Proteus mirabilis = experiment: MIC against Gram-negative bacteria: Proteus mirabilis; details: 5×10^5 CFU/mL
How it was run: as §1

Proteus vulgaris = experiment: MIC against Gram-negative bacteria: Proteus vulgaris; details: 5×10^5 CFU/mL
How it was run: as §1

Serratia marcescens = experiment: MIC against Gram-negative bacteria: Serratia marcescens; details: 5×10^5 CFU/mL
How it was run: as §1

[1] = E. coli BL21, 96-well plate, 37° C., 10 h
[2] = Pseudomonas aeruginosa, 96-well plate, 37° C., 10 h
[3] = Klebsiella pneumonia, 96-well plate, 37° C., 10 h
[4] = Enterobacter cloacae, 96-well plate, 37° C., 10 h
[5] = Aeromonas hydrophila, 96-well plate, 37° C., 10 h
[6] = Citrobacter diversus, 96-well plate, 37° C., 10 h
[7] = Moraxella catarrhalis, 96-well plate, 37° C., 10 h
[8] = Proteus mirabilis, 96-well plate, 37° C., 10 h
[9] = Proteus vulgaris, 96-well plate, 37° C., 10 h
[10] = Serratia marcescens, 96-well plate, 37° C., 10 h
[11] = E. coli BL21, 10 h cultivation at 37° C.
[12] = Pseudomonas aeruginosa, 10 h cultivation at 37° C.
[13] = Klebsiella pneumonia, 10 h cultivation at 37° C.
[14] = Enterobacter cloacae, 10 h cultivation at 37° C.
[15] = Aeromonas hydrophila, 10 h cultivation at 37° C.
[16] = Citrobacter diversus, 10 h cultivation at 37° C.
[17] = Moraxella catarrhalis, 10 h cultivation at 37° C.
[18] = Proteus mirabilis, 10 h cultivation at 37° C.
[19] = Proteus vulgaris, 10 h cultivation at 37° C.
[20] = Serratia marcescens, 10 h cultivation at 37° C.
[21] = P. aeruginosa, 10 h cultivation at 37° C.
[22] = K. pneumonia, 10 h cultivation at 37° C.
[23] = E. cloacae, 10 h cultivation at 37° C.
[24] = A. hydrophila, 10 h cultivation at 37° C.
[25] = C. diversus, 10 h cultivation at 37° C.
[26] = M. catarrhalis, 10 h cultivation at 37° C.
[27] = P. mirabilis, 10 h cultivation at 37° C.
[28] = P. vulgaris, 10 h cultivation at 37° C.
[29] = S. marcescens, 10 h cultivation at 37° C.
[30] = 10 h cultivation at 37° C., two-fold serial dilution

## PRT58 (PCALGEGPACAHCAPDNSTRCGSCNPGYVLAQGLCR; listed as Homo sapiens)
E. coli DH5α
  MIC: 12.5 µg/mL
E. coli BL21; [1]
  MIC (μg/mL) E. coli BL21: 25 µg/mL
Pseudomonas aeruginosa; [2]
  MIC (μg/mL) P. aeruginosa: 12.5 µg/mL
Klebsiella pneumonia; [3]
  MIC (μg/mL) K. pneumonia: 12.5 µg/mL
Enterobacter cloacae; [4]
  MIC (μg/mL) E. cloacae: 12.5 µg/mL
Aeromonas hydrophila; [5]
  MIC (μg/mL) A. hydrophila: 12.5 µg/mL
Citrobacter diversus; [6]
  MIC (μg/mL) C. diversus: 12.5 µg/mL
Moraxella catarrhalis; [7]
  MIC (μg/mL) M. catarrhalis: 25 µg/mL
Proteus mirabilis; [8]
  MIC (μg/mL) P. mirabilis: 100 µg/mL
Proteus vulgaris; [9]
  MIC (μg/mL) P. vulgaris: 25 µg/mL
Serratia marcescens; [10]
  MIC (μg/mL) S. marcescens: 50 µg/mL

## PRT1363 (SEKRCPADCHNRGRCVDGRCECDDGFTGADCG; listed as Homo sapiens)
E. coli DH5α
  MIC: 12.5 µg/mL
E. coli BL21; [11]
  MIC against E. coli BL21: 12.5 µg/mL
Pseudomonas aeruginosa; [12]
  MIC against P. aeruginosa: 12.5 µg/mL
Klebsiella pneumonia; [13]
  MIC against K. pneumonia: 12.5 µg/mL
Enterobacter cloacae; [14]
  MIC against E. cloacae: 50 µg/mL
Aeromonas hydrophila; [15]
  MIC against A. hydrophila: 12.5 µg/mL
Citrobacter diversus; [16]
  MIC against C. diversus: 25 µg/mL
Moraxella catarrhalis; [17]
  MIC against M. catarrhalis: 50 µg/mL
Proteus mirabilis; [18]
  MIC against P. mirabilis: 25 µg/mL
Proteus vulgaris; [19]
  MIC against P. vulgaris: 12.5 µg/mL
Serratia marcescens; [20]
  MIC against S. marcescens: 50 µg/mL

## PRT841 (PEDECANGHHDCNETQNCHDQPHGYECSCKTGYTMDNMT; listed as Homo sapiens)
E. coli DH5α
  MIC: 12.5 µg/mL
E. coli BL21; [11]
  MIC (μg/mL) E. coli BL21: 25 µg/mL
Pseudomonas aeruginosa; [21]
  MIC (μg/mL) P. aeruginosa: 12.5 µg/mL
Klebsiella pneumonia; [22]
  MIC (μg/mL) K. pneumonia: 50 µg/mL
Enterobacter cloacae; [23]
  MIC (μg/mL) E. cloacae: 12.5 µg/mL
Aeromonas hydrophila; [24]
  MIC (μg/mL) A. hydrophila: 50 µg/mL
Citrobacter diversus; [25]
  MIC (μg/mL) C. diversus: 12.5 µg/mL
Moraxella catarrhalis; [26]
  MIC (μg/mL) M. catarrhalis: 50 µg/mL
Proteus mirabilis; [27]
  MIC (μg/mL) P. mirabilis: 12.5 µg/mL
Proteus vulgaris; [28]
  MIC (μg/mL) P. vulgaris: 50 µg/mL
Serratia marcescens; [29]
  MIC (μg/mL) S. marcescens: 12.5 µg/mL

## PRT1480 (PGPCDSQPCQNGGTCVPEGLDGYQCLCPLAFGGEANCA; listed as Homo sapiens)
E. coli DH5α
  MIC: 50 µg/mL
E. coli BL21; [11]
  MIC against E. coli BL21: 12.5 µg/mL
Pseudomonas aeruginosa; [12]
  MIC against P. aeruginosa: 25 µg/mL
Klebsiella pneumonia; [13]
  MIC against K. pneumonia: 12.5 µg/mL
Enterobacter cloacae; [14]
  MIC against E. cloacae: 25 µg/mL
Aeromonas hydrophila; [15]
  MIC against A. hydrophila: 12.5 µg/mL
Citrobacter diversus; [16]
  MIC against C. diversus: 25 µg/mL
Moraxella catarrhalis; [17]
  MIC against M. catarrhalis: 12.5 µg/mL
Proteus mirabilis; [18]
  MIC against P. mirabilis: 50 µg/mL
Proteus vulgaris; [19]
  MIC against P. vulgaris: 12.5 µg/mL
Serratia marcescens; [20]
  MIC against S. marcescens: 50 µg/mL

## PRT147 (DINECEINNGGCSVAPPVECVNTPGSSHCQACPPGYQGDGRVCT; listed as Homo sapiens)
E. coli DH5α
  MIC: 12.5 µg/mL
E. coli BL21; [11]
  MIC (μg/mL) E. coli BL21: 12.5 µg/mL
Pseudomonas aeruginosa; [21]
  MIC (μg/mL) P. aeruginosa: 12.5 µg/mL
Klebsiella pneumonia; [22]
  MIC (μg/mL) K. pneumonia: 12.5 µg/mL
Enterobacter cloacae; [23]
  MIC (μg/mL) E. cloacae: 12.5 µg/mL
Aeromonas hydrophila; [24]
  MIC (μg/mL) A. hydrophila: 12.5 µg/mL
Citrobacter diversus; [25]
  MIC (μg/mL) C. diversus: 12.5 µg/mL
Moraxella catarrhalis; [26]
  MIC (μg/mL) M. catarrhalis: 12.5 µg/mL
Proteus mirabilis; [27]
  MIC (μg/mL) P. mirabilis: 12.5 µg/mL
Proteus vulgaris; [28]
  MIC (μg/mL) P. vulgaris: 25 µg/mL
Serratia marcescens; [29]
  MIC (μg/mL) S. marcescens: 12.5 µg/mL

## PRT1263 (DVDECAQGLDDCHADALCQNTPTSYKCSCKPGYQGEGRQCE; listed as Homo sapiens)
E. coli DH5α
  MIC: 100 µg/mL
E. coli BL21; [1]
  MIC against E. coli BL21: 50 µg/mL
Pseudomonas aeruginosa; [2]
  MIC against P. aeruginosa: 12.5 µg/mL
Klebsiella pneumonia; [3]
  MIC against K. pneumonia: 25 µg/mL
Enterobacter cloacae; [4]
  MIC against E. cloacae: 50 µg/mL
Aeromonas hydrophila; [5]
  MIC against A. hydrophila: 12.5 µg/mL
Citrobacter diversus; [6]
  MIC against C. diversus: 50 µg/mL
Moraxella catarrhalis; [7]
  MIC against M. catarrhalis: 12.5 µg/mL
Proteus mirabilis; [8]
  MIC against P. mirabilis: 50 µg/mL
Proteus vulgaris; [9]
  MIC against P. vulgaris: 12.5 µg/mL
Serratia marcescens; [10]
  MIC against S. marcescens: 50 µg/mL

## PRT1075 (EVNKCSRCLEGACVVNKQSGDVTCNCTDGRVAPSCL; listed as Homo sapiens)
E. coli DH5α
  MIC: 25 µg/mL
E. coli BL21; [30]
  MIC E. coli BL21: 12.5 µg/mL
Pseudomonas aeruginosa; [30]
  MIC P. aeruginosa: 25 µg/mL
Klebsiella pneumonia; [30]
  MIC K. pneumonia: 50 µg/mL
Enterobacter cloacae; [30]
  MIC E. cloacae: 25 µg/mL
Aeromonas hydrophila; [30]
  MIC A. hydrophila: 25 µg/mL
Citrobacter diversus; [30]
  MIC C. diversus: 50 µg/mL
Moraxella catarrhalis; [30]
  MIC M. catarrhalis: 25 µg/mL
Proteus mirabilis; [30]
  MIC P. mirabilis: 50 µg/mL
Proteus vulgaris; [30]
  MIC P. vulgaris: 12.5 µg/mL
Serratia marcescens; [30]
  MIC S. marcescens: 50 µg/mL

## PRT464 (DLDECRVRNLCQHACRNTEGSYQCLCPAGYRLLPSGKNCQ; listed as Homo sapiens)
E. coli DH5α
  MIC: 12.5 µg/mL
E. coli BL21; 96-well plate, 37° C., 10 h
  MIC against E. coli BL21: 50 µg/mL
Pseudomonas aeruginosa; 96-well plate, 37° C., 10 h
  MIC against P. aeruginosa: 12.5 µg/mL
Klebsiella pneumonia; 96-well plate, 37° C., 10 h
  MIC against K. pneumonia: 50 µg/mL
Enterobacter cloacae; 96-well plate, 37° C., 10 h
  MIC against E. cloacae: 12.5 µg/mL
Aeromonas hydrophila; 96-well plate, 37° C., 10 h
  MIC against A. hydrophila: 25 µg/mL
Citrobacter diversus; 96-well plate, 37° C., 10 h
  MIC against C. diversus: 50 µg/mL
Moraxella catarrhalis; 96-well plate, 37° C., 10 h
  MIC against M. catarrhalis: 25 µg/mL
Proteus mirabilis; 96-well plate, 37° C., 10 h
  MIC against P. mirabilis: 12.5 µg/mL
Proteus vulgaris; 96-well plate, 37° C., 10 h
  MIC against P. vulgaris: 50 µg/mL
Serratia marcescens; 96-well plate, 37° C., 10 h
  MIC against S. marcescens: 12.5 µg/mL

## PRT535 (CQCDIGGALSSMCSGPSGVCQCREHVVGKVCQRPENNYYFPDLHH; listed as Homo sapiens)
E. coli DH5α
  MIC: 12.5 µg/mL
E. coli BL21; 96-well plate, 37° C., 10 h
  MIC against E. coli BL21: 25 µg/mL
Pseudomonas aeruginosa; 96-well plate, 37° C., 10 h
  MIC against P. aeruginosa: 50 µg/mL
Klebsiella pneumonia; 96-well plate, 37° C., 10 h
  MIC against K. pneumonia: 12.5 µg/mL
Enterobacter cloacae; 96-well plate, 37° C., 10 h
  MIC against E. cloacae: 50 µg/mL
Aeromonas hydrophila; 96-well plate, 37° C., 10 h
  MIC against A. hydrophila: 12.5 µg/mL
Citrobacter diversus; 96-well plate, 37° C., 10 h
  MIC against C. diversus: 50 µg/mL
Moraxella catarrhalis; 96-well plate, 37° C., 10 h
  MIC against M. catarrhalis: 12.5 µg/mL
Proteus mirabilis; 96-well plate, 37° C., 10 h
  MIC against P. mirabilis: 50 µg/mL
Proteus vulgaris; 96-well plate, 37° C., 10 h
  MIC against P. vulgaris: 12.5 µg/mL
Serratia marcescens; 96-well plate, 37° C., 10 h
  MIC against S. marcescens: 50 µg/mL

## PRT1392 (TELCTMECGSHGVCSRGICQCEEGWVGPTC; listed as Homo sapiens)
E. coli DH5α
  MIC: 12.5 µg/mL
E. coli BL21; [11]
  MIC against E. coli BL21: 25 µg/mL
Pseudomonas aeruginosa; [12]
  MIC against P. aeruginosa: 12.5 µg/mL
Klebsiella pneumonia; [13]
  MIC against K. pneumonia: 25 µg/mL
Enterobacter cloacae; [14]
  MIC against E. cloacae: 12.5 µg/mL
Aeromonas hydrophila; [15]
  MIC against A. hydrophila: 25 µg/mL
Citrobacter diversus; [16]
  MIC against C. diversus: 12.5 µg/mL
Moraxella catarrhalis; [17]
  MIC against M. catarrhalis: 25 µg/mL
Proteus mirabilis; [18]
  MIC against P. mirabilis: 12.5 µg/mL
Proteus vulgaris; [19]
  MIC against P. vulgaris: 25 µg/mL
Serratia marcescens; [20]
  MIC against S. marcescens: 50 µg/mL
